Experimental data as given in ChEMBL document CHEMBL1201862, “PubChem BioAssay data set” (2004).
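Test compounds were applied to cells in 96-well plates for 48 hours at 5 doses. GI50 marks 50% less growth.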 The source made the active and inactive calls. No stated cut-off is given here; in the data, active = GI50 up to about 1.1 µM and inactive = higher.

Key:
Test in all cases: DTP human tumour cell line panel, 48 h
U-251 = tested on: U-251
RPMI-8226 = tested on: RPMI-8226
UACC-257 = tested on: UACC-257
DMS-114 = tested on: DMS-114
SW-620 = tested on: SW-620
KM-20L2 = tested on: KM-20L2
NCI-H460 = tested on: NCI-H460
SF-539 = tested on: SF-539
RXF 393 = tested on: RXF 393
LXFL 529 = tested on: LXFL 529
HOP-18 = tested on: HOP-18
ACHN = tested on: ACHN
SNB-19 = tested on: SNB-19
HCC 2998 = tested on: HCC 2998
IGROV-1 = tested on: IGROV-1
SK-MEL-5 = tested on: SK-MEL-5
SK-MEL-2 = tested on: SK-MEL-2
COLO 205 = tested on: COLO 205
HCT-116 = tested on: HCT-116
NCI-H522 = tested on: NCI-H522
SK-MEL-28 = tested on: SK-MEL-28
MOLT-4 = tested on: MOLT-4
OVCAR-8 = tested on: OVCAR-8
SNB-75 = tested on: SNB-75
A549 = tested on: A549
CAKI-1 = tested on: CAKI-1
UO-31 = tested on: UO-31
SR = tested on: SR
HL-60 = tested on: HL-60
M19-MEL = tested on: M19-MEL
SK-OV-3 = tested on: SK-OV-3
OVCAR-4 = tested on: OVCAR-4
UACC-62 = tested on: UACC-62
M14 = tested on: M14
TK-10 = tested on: TK-10
SF-268 = tested on: SF-268
K562 = tested on: K562
A498 = tested on: A498
DLD-1 = tested on: DLD-1
CCRF-CEM = tested on: CCRF-CEM
KM12 = tested on: KM12
DMS-273 = tested on: DMS-273
786-0 = tested on: 786-0
Malme-3M = tested on: Malme-3M
SN12C = tested on: SN12C
SNB-78 = tested on: SNB-78
HOP-62 = tested on: HOP-62
HCT-15 = tested on: HCT-15
NCI-H226 = tested on: NCI-H226
OVCAR-5 = tested on: OVCAR-5
HT-29 = tested on: HT-29
XF498 = tested on: XF498
EKVX = tested on: EKVX
LOX IMVI = tested on: LOX IMVI
OVCAR-3 = tested on: OVCAR-3
NCI-H23 = tested on: NCI-H23
SF-295 = tested on: SF-295

Q: What does the source list for `CN(C)C(=S)/N=c1\ss/c(=N\C(=S)N(C)C)n1Cc1ccco1`?
A: GI50 (U-251): > 100 µM (inactive); GI50 (RPMI-8226): > 100 µM (inactive); GI50 (UACC-257): > 100 µM (inactive); GI50 (DMS-114): > 100 µM (inactive); GI50 (SW-620): > 100 µM (inactive); GI50 (KM-20L2): > 100 µM (inactive); GI50 (NCI-H460): > 100 µM (inactive); GI50 (SF-539): > 100 µM (inactive); GI50 (RXF 393): > 100 µM (inactive); GI50 (LXFL 529): > 100 µM (inactive); GI50 (HOP-18): > 100 µM (inactive); GI50 (ACHN): > 100 µM (inactive); GI50 (SNB-19): > 100 µM (inactive); GI50 (HCC 2998): > 100 µM (inactive); GI50 (IGROV-1): > 100 µM (inactive); GI50 (SK-MEL-5): > 100 µM (inactive); GI50 (SK-MEL-2): > 100 µM (inactive); GI50 (COLO 205): > 100 µM (inactive); GI50 (HCT-116): > 100 µM (inactive); GI50 (NCI-H522): > 100 µM (inactive); GI50 (SK-MEL-28): > 100 µM (inactive); GI50 (MOLT-4): > 100 µM (inactive); GI50 (OVCAR-8): > 100 µM (inactive); GI50 (SNB-75): > 100 µM (inactive); GI50 (A549): > 100 µM (inactive); GI50 (CAKI-1): > 100 µM (inactive); GI50 (UO-31): > 100 µM (inactive); GI50 (SR): > 100 µM (inactive); GI50 (HL-60): > 100 µM (inactive); GI50 (M19-MEL): > 100 µM (inactive); GI50 (SK-OV-3): > 100 µM (inactive); GI50 (OVCAR-4): > 100 µM (inactive); GI50 (UACC-62): > 100 µM (inactive); GI50 (M14): > 100 µM (inactive); GI50 (TK-10): > 100 µM (inactive); GI50 (SF-268): > 100 µM (inactive); GI50 (K562): > 100 µM (inactive); GI50 (A498): > 100 µM (inactive); GI50 (DLD-1): > 100 µM (inactive); GI50 (CCRF-CEM): > 100 µM (inactive); GI50 (KM12): > 100 µM (inactive); GI50 (DMS-273): > 100 µM (inactive); GI50 (786-0): > 100 µM (inactive); GI50 (Malme-3M): > 100 µM (inactive); GI50 (SN12C): > 100 µM (inactive); GI50 (SNB-78): > 100 µM (inactive); GI50 (HOP-62): > 100 µM (inactive); GI50 (HCT-15): > 100 µM; GI50 (NCI-H226): > 100 µM (inactive)

Q: How did the GI50 (U-251) turn out when `Cc1ccc(/C=C/C(=O)c2cccc3ccccc23)cc1` was run?
A: 13 µM (inactive)

Q: What about the GI50 (RPMI-8226) of the same molecule?
A: 2.49 µM (inactive)

Q: And the GI50 (UACC-257)?
A: 18.5 µM (inactive)

Q: And the GI50 (SW-620)?
A: 13.5 µM (inactive)

Q: And the GI50 (KM-20L2)?
A: 15.8 µM (inactive)

Q: What about the GI50 (NCI-H460) of the same molecule?
A: 15.2 µM (inactive)

Q: What about the GI50 (RXF 393) of the same molecule?
A: 12.7 µM (inactive)

Q: And the GI50 (LXFL 529)?
A: 12.7 µM (inactive)

Q: And the GI50 (ACHN)?
A: 16.9 µM (inactive)

Q: What about the GI50 (SNB-19) of the same molecule?
A: 16.1 µM (inactive)

Q: What about the GI50 (HCC 2998) of the same molecule?
A: 22.9 µM (inactive)

Q: And the GI50 (IGROV-1)?
A: > 10 µM (inactive)

Q: And the GI50 (SK-MEL-5)?
A: > 10 µM (inactive)

Q: What about the GI50 (SK-MEL-2) of the same molecule?
A: 18.5 µM (inactive)

Q: What about the GI50 (COLO 205) of the same molecule?
A: 20.5 µM (inactive)

Q: And the GI50 (HCT-116)?
A: 11.5 µM (inactive)

Q: And the GI50 (NCI-H522)?
A: 17.1 µM (inactive)

Q: And the GI50 (OVCAR-5)?
A: 14.4 µM (inactive)

Q: What about the GI50 (HT-29) of the same molecule?
A: 18.2 µM (inactive)

Q: What about the GI50 (XF498) of the same molecule?
A: 15.3 µM (inactive)

Q: And the GI50 (SK-MEL-28)?
A: 18 µM (inactive)

Q: And the GI50 (EKVX)?
A: 17.8 µM (inactive)

Q: And the GI50 (MOLT-4)?
A: 13.6 µM (inactive)

Q: And the GI50 (OVCAR-8)?
A: 14.5 µM (inactive)

Q: And the GI50 (SNB-75)?
A: 19.1 µM (inactive)

Q: And the GI50 (LOX IMVI)?
A: > 10 µM (inactive)

Q: And the GI50 (OVCAR-3)?
A: 17.5 µM (inactive)

Q: What about the GI50 (NCI-H23) of the same molecule?
A: > 10 µM (inactive)

Q: What about the GI50 (A549) of the same molecule?
A: 16.7 µM (inactive)

Q: And the GI50 (CAKI-1)?
A: 16.4 µM (inactive)

Q: What about the GI50 (UO-31) of the same molecule?
A: 25 µM (inactive)

Q: What about the GI50 (SR) of the same molecule?
A: 11.3 µM (inactive)

Q: And the GI50 (HL-60)?
A: 7.18 µM (inactive)

Q: What about the GI50 (M19-MEL) of the same molecule?
A: 21.2 µM (inactive)

Q: What about the GI50 (SK-OV-3) of the same molecule?
A: 24.4 µM (inactive)

Q: And the GI50 (OVCAR-4)?
A: 13.4 µM (inactive)

Q: And the GI50 (UACC-62)?
A: 17.4 µM (inactive)

Q: What about the GI50 (M14) of the same molecule?
A: 19.3 µM (inactive)

Q: What about the GI50 (TK-10) of the same molecule?
A: 15.2 µM (inactive)

Q: What about the GI50 (SF-268) of the same molecule?
A: 16.2 µM (inactive)

Q: What about the GI50 (K562) of the same molecule?
A: 8.65 µM (inactive)

Q: And the GI50 (A498)?
A: 13.9 µM (inactive)

Q: What about the GI50 (DLD-1) of the same molecule?
A: > 10 µM (inactive)

Q: What about the GI50 (CCRF-CEM) of the same molecule?
A: 15.9 µM (inactive)

Q: What about the GI50 (KM12) of the same molecule?
A: 13.2 µM (inactive)

Q: What about the GI50 (DMS-273) of the same molecule?
A: 19 µM (inactive)

Q: And the GI50 (786-0)?
A: 15 µM (inactive)

Q: And the GI50 (Malme-3M)?
A: 15.3 µM (inactive)

Q: And the GI50 (SN12C)?
A: 14.3 µM (inactive)

Q: And the GI50 (SF-295)?
A: 17.7 µM (inactive)

Q: And the GI50 (SNB-78)?
A: 14.8 µM (inactive)

Q: And the GI50 (HOP-62)?
A: 20.7 µM (inactive)

Q: What about the GI50 (HCT-15) of the same molecule?
A: 19.1 µM

Q: What about the GI50 (NCI-H226) of the same molecule?
A: 17.8 µM (inactive)
